These are literature values, as cited in patent publication US20240009433A1, “METHODS FOR CONTINUOUS ORAL DRUG DELIVERY” (SynAgile Corporation, priority 2020, published 2024).

For series [1] the following is noted: in vivo.
The conditions of series [2]: in vivo. The source holds these as a separate data set.
The conditions of series [3]: in vivo. The source holds these as a separate data set.

`CCN(CC)C(=O)/C(C#N)=C/c1cc(O)c(O)c([N+](=O)[O-])c1` [Entacapone]: in series [1], the “crossing of the blood-brain barrier” value was “does not cross the blood-brain barrier”. Moreover, the plasma half-life in series [2] was 0.4 to 0.7 h.

`Cc1ccc(C(=O)c2cc(O)c(O)c([N+](=O)[O-])c2)cc1` [Tolcapone]: in series [1], the “crossing of the blood-brain barrier” value is “crosses the barrier”. The plasma half-life in series [2] is 2 to 3 h. Also, the hepatotoxicity entry in series [3] is given as “use is limited by its hepatotoxicity”.
